Reference: patent EP4817428A1, “SWEETNESS ENHANCER CONTAINING ERGOTHIONEINE AS ACTIVE INGREDIENT, AND FOOD OR BEVERAGE PRODUCT CONTAINING SAME” (Kikkoman Corporation, priority 2023, dated 2025)
Read-outs that look alike come from different tables or passages of the source.

How the values were obtained:
[1] = Test 7: sensory evaluation, selection of fructose sample of equivalent sweetness; format: in vivo; settings: 5% fructose sample containing 60 ppm ERG
Protocol: Fructose was added to pure water to prepare fructose samples having six concentrations of 0%, 4.5%, 5%, 5.25%, 5.5%, and 6%; and as a seventh sample, a sample in which ergothioneine was added to 5% fructose to a final concentration of 60 ppm was prepared.
Sweetness was sensorially evaluated by the same expert panel of five trained sweetness-sensitive subjects as in Test 1. The panel of five experts was asked to select a sample having an equivalent sweetness from among the 1st to 6th fructose samples (the concentration was not disclosed to the panel) regarding the sweetness of the 7th 5% fructose sample containing 60 ppm ERG.

[2] = format: in vivo
Protocol: Evaluation results of sweetness of test product compared with control • ∘: Sweetness was enhanced compared to the control. • ◇: Sweetness was similar to that of the control. […]
(§1) A drinking test by a panel of three experts was conducted on the prepared soy milk to which ERG was added at each concentration (the concentration was not disclosed to the panel), using a prepared soy milk to which no ergothioneine was added (ERG0) as a control, and the sweetness was sensorially evaluated by a paired comparison test.

[3] = format: in vivo; remark: listed apart in the source
From the text: (§2) Evaluation results of sweetness of test product compared with control • ∘: Sweetness was enhanced compared to the control. • ◇: Sweetness was similar to that of the control.
(§3) Pairs combining a control 50% glucose sample to which ergothioneine was not added and a 50% glucose sample containing ergothioneine at each concentration were presented to the expert panel of four, and the panel evaluated which sample of the presented pair was perceived to be sweeter by a paired comparison test.
The same test as in the 50% glucose solution of (1) described above was conducted on a 10% glucose solution using the samples (ERG0 to 20) shown in Table 6.

[4] = Test 9 (3): paired comparison test of sweetness, 50% starch syrup sample; format: in vivo; settings: 50% starch syrup samples
Protocol: (§4) In the following Test 9, sensory evaluation was performed by a panel of three experts in the same paired comparison test as in Tests 3, 5, and 7.
Samples were prepared by adding ERG to a 50% starch syrup sample of a highly saccharified reduced starch syrup rich in monosaccharide alcohols and disaccharide alcohols (SE 600, Bussan Food Science Co., Ltd.) to the ERG concentrations shown in Table 14 (ERG0 to 10). Pairs combining a control 50% starch syrup sample and a 50% starch syrup sample containing ERG at each concentration were presented, and the panel evaluated which sample of the presented pair was perceived to be sweeter by a paired comparison test.

[5] = format: in vivo; settings: 50% glucose solution
Protocol: as §2
Samples ERG0 to 900 were prepared by adding ergothioneine to 50% glucose samples to final concentrations of 0.5 ppm, 1 ppm, 3 ppm, 5 ppm, 10 ppm, 20 ppm, 60 ppm, 100 ppm, 400 ppm, and 900 ppm (Table 4).
as §3

[6] = format: in vivo; settings: milk
Protocol: as §2
Samples of milk (EGR0.5 to 20) were prepared by adding ergothioneine to commercially available milk to final concentrations of 0.5 ppm, 1 ppm, 3 ppm, 5 ppm, 10 ppm, and 20 ppm.
as §1, with “the” for “the prepared soy”, “a” for “a prepared soy”

[7] = format: in vivo; remark: listed apart in the source
Protocol: Samples were prepared by adding ergothioneine to 1% to 50% sucrose solutions to final concentrations of 0 ppm, 0.05 ppm, 0.1 ppm, 0.25 ppm, and 0.5 ppm (ERG0 to 0.5 in Table 1 below; hereinafter, "ERGX" means a sample to which X ppm of ERG is added).
A drinking test by an expert panel of four, different from those in Tests 1 and 2, was conducted on 1% to 50% sucrose samples to which ERG was added at each concentration (the concentration was not disclosed to the panel), using a 1% to 50% sucrose sample to which no ergothioneine was added as a control, and sweetness was sensorially evaluated. After tasting each sample and before tasting the next sample, the mouth was completely rinsed with water at room temperature. Pairs combining the control 1% to 50% sucrose sample and the 1% to 50% sucrose sample containing ergothioneine at each concentration were presented to the expert panel, and the panel evaluated which sample of the presented pair was perceived to be sweeter by a paired comparison test.
as §2

[8] = Test 9 (4): paired comparison test of sweetness, 50% oligosaccharide sample; format: in vivo; settings: 50% oligosaccharide samples
Protocol: as §4
Samples were prepared by adding ERG to a 50% oligosaccharide sample of an oligosaccharide (Fuji Oligo #450, Nihon Shokuhin Kako Co., Ltd.) to the ERG concentrations shown in Table 15 (ERG0 to 10). Pairs combining a control 50% oligosaccharide sample and a 50% oligosaccharide sample containing ERG at each concentration were presented, and the panel evaluated which sample of the presented pair was perceived to be sweeter by a paired comparison test.

[9] = physchem; format: physicochemical; settings: 10% (100,000 ppm) dissolved in water at 40°C, left at 4°C; ERG precipitated 1 day later; read-out: concentration at which ERG could be contained in water
Protocol: ERG was dissolved in water at 40°C so that the ergothioneine concentration became 10% (100,000 ppm), and then left to stand at 4°C. When the solution was checked 1 day later, ERG was precipitated. From the above, the concentration at which ERG could be contained in water was less than 10%.

[10] = format: in vivo; settings: 4% sucrose
Protocol: as §2
Samples (ERG5 to 900) were prepared by adding ergothioneine to a 4% sucrose solution to final concentrations of 5 ppm, 20 ppm, 60 ppm, 100 ppm, 400 ppm, and 900 ppm, and a drinking test by an expert panel of four, different from those in Tests 1 and 2, was conducted on the 4% sucrose samples to which ERG was added at each concentration (the concentration was not disclosed to the panel), and sweetness was sensorially evaluated.
Pairs combining the control 4% sucrose sample of Table 3 below and the 4% sucrose sample containing ergothioneine at each concentration were presented to the expert panel, and the panel evaluated which sample of the presented pair was perceived to be sweeter by a paired comparison test.

[11] = Test 9 (2): paired comparison test of sweetness, 50% liquid sugar sample; format: in vivo; settings: 50% liquid sugar samples
Protocol: as §4
Samples were prepared by adding ERG to a 50% liquid sugar sample of an isomerized sugar containing 55% or more of fructose (New Fructo 55 (NF55), Showa Sangyo Co., Ltd.) to the ERG concentrations shown in Table 13 (ERG0 to 20). Pairs combining a control 50% liquid sugar sample and a 50% liquid sugar sample containing ERG at each concentration were presented, and the panel evaluated which sample of the presented pair was perceived to be sweeter by a paired comparison test.

[12] = format: in vivo; remark: listed apart in the source
Protocol: as §2
Samples (ERG0 to 10) were prepared by adding ergothioneine to 20% fructose samples to final concentrations of 0.5 ppm, 1 ppm, 3 ppm, 5 ppm, and 10 ppm.
A drinking test by a panel of four experts was conducted on 20% fructose samples to which ERG was added at each concentration (the concentration was not disclosed to the panel), using a 20% fructose sample to which no ergothioneine was added as a control, and sweetness was sensorially evaluated.
In addition, samples (ERG0.5 to 900) were prepared by adding ergothioneine to 20% fructose samples to final concentrations of 0.5 ppm, 5 ppm, 10 ppm, 20 ppm, 40 ppm, 60 ppm, 80 ppm, 100 ppm, 200 ppm, 400 ppm, and 900 ppm.
Pairs combining 20% fructose samples containing different concentrations of ERG (for example, a pair of ERG 20 ppm and 40 ppm) were presented to the expert panel, and the panel evaluated which sample of the presented pair was perceived to be sweeter by a paired comparison test.

[13] = sucrose solution of 0.5% or more and less than 1%
[14] = sucrose solution of 1% or more and less than 10%
[15] = sucrose solution of 10% or more

SMILES: C[N+](C)(C)[C@@H](Cc1c[nH]c(=S)[nH]1)C(=O)[O-] [ERG, Ergothioneine]
- fructose solution of equivalent sweetness ([1]; three of the five panelists): 5.5%
- fructose solution of equivalent sweetness ([1]; two of the five panelists): 5.25%
- ERG content at which all the panelists evaluated the enhancement of sweetness ([2]; prepared soy milk): 5 ppm
- ERG content at which two panelists evaluated that the sweetness was enhanced ([2]; prepared soy milk): 3 ppm
- creamy feel ([2]; prepared soy milk containing 40 ppm of ERG): increased
- ERG concentration at which the sweetness-enhancing effect became constant ([3]; 10% glucose): 60 ppm
- ERG added at which all the panelists evaluated that the sweetness was enhanced ([3]; 10% glucose solution): ≥ 0.5 ppm
- ERG having a sweetness-enhancing effect, based on the glucose content ([3]; 10% glucose solution): ≥ 0.0005 % by weight
- ERG added at which all the panelists evaluated that the sweetness was enhanced [4]: ≥ 0.5 ppm
- ERG added at which all the panelists evaluated that the sweetness was enhanced [5]: ≥ 0.5 ppm
- ERG having a sweetness-enhancing effect, based on the glucose content [5]: ≥ 0.0001 % by weight
- ERG content at which all the panelists evaluated that the sweetness was enhanced [6]: 5 ppm
- ERG added at which all evaluated that the sweetness was enhanced [7, 13]: ≥ 0.5 ppm
- amount of ERG having a sweetness-enhancing effect relative to the sucrose content [7, 13]: ≥ 0.01 % by weight
- ERG added at which all evaluated that the sweetness was enhanced [7, 14]: ≥ 0.25 ppm
- amount of ERG having a sweetness-enhancing effect relative to the sucrose content [7, 14]: ≥ 0.0025 % by weight
- ERG added at which all evaluated that the sweetness was enhanced [7, 15]: ≥ 0.1 ppm
- amount of ERG having a sweetness-enhancing effect relative to the sucrose content [7, 15]: ≥ 0.0001 % by weight
- ERG added at which all the panelists evaluated that the sweetness was enhanced [8]: ≥ 0.5 ppm
- solubility at 24 h [9]: < 100 mg/mL
- ERG concentration at which the sweetness-enhancing effect became constant [10]: 100 ppm
- ERG added at which all the panelists evaluated that the sweetness was enhanced [11]: ≥ 0.5 ppm
- ERG concentration at which the sweetness-enhancing effect became constant ([12]; 20% fructose): 80 ppm
- ERG added at which all the panelists evaluated that the sweetness was enhanced ([12]; 20% fructose samples): ≥ 0.5 ppm
- ERG having a sweetness-enhancing effect, based on the fructose content ([12]; 20% fructose samples): ≥ 0.0003 % by weight
